Species: Rattus norvegicus
Assay: DrugMatrix - Regimen: Daily Repeat
Type: toxicity, organism-based, Sprague-Dawley
Parameters: regimen Daily Repeat, gender Male, age 6-8 weeks
Details: in vivo, po, route oral GAVAGE, vehicle 100 % WATER; for BASOPHIL / EOSINOPHIL / ERYTHROCYTE COUNT / HEMATOCRIT / HEMOGLOBIN / LEUKOCYTE COUNT / LYMPHOCYTE / MEAN CORPUSCULAR HEMOGLOBIN / MEAN CORPUSCULAR HEMOGLOBIN CONCENTRATION / MEAN CORPUSCULAR VOLUME / MONOCYTE / NEUTROPHIL / PLATELET COUNT: tissue Blood; for ALANINE AMINOTRANSFERASE / ALBUMIN / ALKALINE PHOSPHATASE / ASPARTATE AMINOTRANSFERASE / BLOOD UREA NITROGEN / CHLORIDE / CHOLESTEROL / CREATINE PHOSPHOKINASE / CREATININE / GLUCOSE / PHOSPHORUS / POTASSIUM / SODIUM / TOTAL BILIRUBIN / TOTAL PROTEIN: tissue Plasma
[1] = 0 mg/kg, 72 h, dose level Control, time 3 day
[2] = 0 mg/kg, 120 h, dose level Control, time 5 day
[3] = 100 mg/kg, 72 h, dose level Low, time 3 day
[4] = 100 mg/kg, 120 h, dose level Low, time 5 day
[5] = 1000 mg/kg, 72 h, dose level High, time 3 day
[6] = 1000 mg/kg, 120 h, dose level High, time 5 day

`Oc1cccc(O)c1O` [PYROGALLOL] was tested, and the BASOPHIL [1] was 0%, the EOSINOPHIL [1] was 0.5% and the “ERYTHROCYTE COUNT” value [1] was 5.8 x10E6/uL. The HEMATOCRIT [1] was 35.07%, the HEMOGLOBIN [1] was 14.12 G/DL and the “LEUKOCYTE COUNT” value [1] was 13.7 x10E3/uL. For the same molecule, the LYMPHOCYTE [1] was 82.33%, the “MEAN CORPUSCULAR HEMOGLOBIN” value [1] was 24.38 pg and the “MEAN CORPUSCULAR HEMOGLOBIN CONCENTRATION” value [1] was 40.28 G/DL. The “MEAN CORPUSCULAR VOLUME” value [1] was 60.52 fL, the MONOCYTE [1] was 2.67% and the NEUTROPHIL [1] was 14.5%. The “PLATELET COUNT” value [1] was 911.5 x10E3/uL, the “ALANINE AMINOTRANSFERASE” value [1] was 36.83 u/L and the ALBUMIN [1] was 3.75 G/DL. The “ALKALINE PHOSPHATASE” value [1] was 399.83 u/L, the “ASPARTATE AMINOTRANSFERASE” value [1] was 66 u/L and the “BLOOD UREA NITROGEN” value [1] was 14.67 mg/dL. The CHLORIDE [1] was 101.67 MEQ/L, the CHOLESTEROL [1] was 66.33 mg/dL and the “CREATINE PHOSPHOKINASE” value [1] was 139.5 u/L. For the same molecule, the CREATININE [1] was 0.92 mg/dL, the GLUCOSE [1] was 175 mg/dL and the PHOSPHORUS [1] was 11.42 mg/dL. For the same molecule, the POTASSIUM [1] was 7.03 MEQ/L, the SODIUM [1] was 148.5 MEQ/L and the “TOTAL BILIRUBIN” value [1] was 1.13 mg/dL. For the same molecule, the “TOTAL PROTEIN” value [1] was 6.87 G/DL, the BASOPHIL [2] was 0% and the EOSINOPHIL [2] was 0.2%. The “ERYTHROCYTE COUNT” value [2] was 6.02 x10E6/uL, the HEMATOCRIT [2] was 36.48% and the HEMOGLOBIN [2] was 14.38 G/DL. For the same molecule, the “LEUKOCYTE COUNT” value [2] was 12.34 x10E3/uL, the LYMPHOCYTE [2] was 83% and the “MEAN CORPUSCULAR HEMOGLOBIN” value [2] was 23.92 pg. The “MEAN CORPUSCULAR HEMOGLOBIN CONCENTRATION” value [2] was 39.44 G/DL, the “MEAN CORPUSCULAR VOLUME” value [2] was 60.66 fL and the MONOCYTE [2] was 3%. For the same molecule, the NEUTROPHIL [2] was 13.8%, the “PLATELET COUNT” value [2] was 1190.6 x10E3/uL and the “ALANINE AMINOTRANSFERASE” value [2] was 43 u/L. For the same molecule, the ALBUMIN [2] was 3.73 G/DL, the “ALKALINE PHOSPHATASE” value [2] was 393 u/L and the “ASPARTATE AMINOTRANSFERASE” value [2] was 62.33 u/L. For the same molecule, the “BLOOD UREA NITROGEN” value [2] was 16.33 mg/dL, the CHLORIDE [2] was 101.67 MEQ/L and the CHOLESTEROL [2] was 65.5 mg/dL. The “CREATINE PHOSPHOKINASE” value [2] was 130.67 u/L, the CREATININE [2] was 0.58 mg/dL and the GLUCOSE [2] was 180.67 mg/dL. It also gave a PHOSPHORUS [2] of 11.28 mg/dL, a POTASSIUM [2] of 7.05 MEQ/L and an SODIUM [2] of 148.17 MEQ/L. The “TOTAL BILIRUBIN” value [2] was 0.72 mg/dL, the “TOTAL PROTEIN” value [2] was 6.83 G/DL and the BASOPHIL [3] was 0%. The EOSINOPHIL [3] was 0.5%, the “ERYTHROCYTE COUNT” value [3] was 5.78 x10E6/uL and the HEMATOCRIT [3] was 35.75%. The HEMOGLOBIN [3] was 13.85 G/DL, the “LEUKOCYTE COUNT” value [3] was 11.7 x10E3/uL and the LYMPHOCYTE [3] was 88%. The “MEAN CORPUSCULAR HEMOGLOBIN” value [3] was 24.05 pg, the “MEAN CORPUSCULAR HEMOGLOBIN CONCENTRATION” value [3] was 38.75 G/DL and the “MEAN CORPUSCULAR VOLUME” value [3] was 61.95 fL. The MONOCYTE [3] was 1%, the NEUTROPHIL [3] was 10.5% and the “PLATELET COUNT” value [3] was 1307.5 x10E3/uL. The “ALANINE AMINOTRANSFERASE” value [3] was 36.33 u/L, the ALBUMIN [3] was 3.67 G/DL and the “ALKALINE PHOSPHATASE” value [3] was 323 u/L. For the same molecule, the “ASPARTATE AMINOTRANSFERASE” value [3] was 59.33 u/L, the “BLOOD UREA NITROGEN” value [3] was 13 mg/dL and the CHLORIDE [3] was 101.33 MEQ/L. The CHOLESTEROL [3] was 71 mg/dL, the “CREATINE PHOSPHOKINASE” value [3] was 134.67 u/L and the CREATININE [3] was 0.6 mg/dL. For the same molecule, the GLUCOSE [3] was 200 mg/dL, the PHOSPHORUS [3] was 13.27 mg/dL and the POTASSIUM [3] was 7.37 MEQ/L. For the same molecule, the SODIUM [3] was 149.67 MEQ/L, the “TOTAL BILIRUBIN” value [3] was 0.5 mg/dL and the “TOTAL PROTEIN” value [3] was 6.67 G/DL. The BASOPHIL [4] was 0%, the EOSINOPHIL [4] was 0% and the “ERYTHROCYTE COUNT” value [4] was 6.06 x10E6/uL. For the same molecule, the HEMATOCRIT [4] was 36.63%, the HEMOGLOBIN [4] was 14.83 G/DL and the “LEUKOCYTE COUNT” value [4] was 14.27 x10E3/uL. The LYMPHOCYTE [4] was 90.67%, the “MEAN CORPUSCULAR HEMOGLOBIN” value [4] was 24.53 pg and the “MEAN CORPUSCULAR HEMOGLOBIN CONCENTRATION” value [4] was 40.53 G/DL. For the same molecule, the “MEAN CORPUSCULAR VOLUME” value [4] was 60.5 fL, the MONOCYTE [4] was 2.33% and the NEUTROPHIL [4] was 7%. For the same molecule, the “PLATELET COUNT” value [4] was 1156 x10E3/uL, the “ALANINE AMINOTRANSFERASE” value [4] was 34.67 u/L and the ALBUMIN [4] was 3.8 G/DL. For the same molecule, the “ALKALINE PHOSPHATASE” value [4] was 375.67 u/L, the “ASPARTATE AMINOTRANSFERASE” value [4] was 59 u/L and the “BLOOD UREA NITROGEN” value [4] was 14 mg/dL. For the same molecule, the CHLORIDE [4] was 103.67 MEQ/L, the CHOLESTEROL [4] was 67.33 mg/dL and the “CREATINE PHOSPHOKINASE” value [4] was 95.67 u/L. The CREATININE [4] was 0.6 mg/dL, the GLUCOSE [4] was 184.67 mg/dL and the PHOSPHORUS [4] was 11.97 mg/dL. For the same molecule, the POTASSIUM [4] was 6.8 MEQ/L, the SODIUM [4] was 151.67 MEQ/L and the “TOTAL BILIRUBIN” value [4] was 0.5 mg/dL. For the same molecule, the “TOTAL PROTEIN” value [4] was 6.87 G/DL, the BASOPHIL [5] was 0% and the EOSINOPHIL [5] was 0.67%. The “ERYTHROCYTE COUNT” value [5] was 4.74 x10E6/uL, the HEMATOCRIT [5] was 27.07% and the HEMOGLOBIN [5] was 11.3 G/DL. For the same molecule, the “LEUKOCYTE COUNT” value [5] was 18.97 x10E3/uL, the LYMPHOCYTE [5] was 64% and the “MEAN CORPUSCULAR HEMOGLOBIN” value [5] was 23.87 pg. The “MEAN CORPUSCULAR HEMOGLOBIN CONCENTRATION” value [5] was 41.93 G/DL, the “MEAN CORPUSCULAR VOLUME” value [5] was 57.07 fL and the MONOCYTE [5] was 1%. For the same molecule, the NEUTROPHIL [5] was 34.33%, the “PLATELET COUNT” value [5] was 1411 x10E3/uL and the “ALANINE AMINOTRANSFERASE” value [5] was 107.67 u/L. For the same molecule, the ALBUMIN [5] was 3.83 G/DL, the “ALKALINE PHOSPHATASE” value [5] was 223 u/L and the “ASPARTATE AMINOTRANSFERASE” value [5] was 109.33 u/L. The “BLOOD UREA NITROGEN” value [5] was 10.33 mg/dL, the CHLORIDE [5] was 101.67 MEQ/L and the CHOLESTEROL [5] was 67.33 mg/dL. The “CREATINE PHOSPHOKINASE” value [5] was 171 u/L, the CREATININE [5] was 0.63 mg/dL and the GLUCOSE [5] was 206.33 mg/dL. The PHOSPHORUS [5] was 12.3 mg/dL, the POTASSIUM [5] was 6.63 MEQ/L and the SODIUM [5] was 149 MEQ/L. The “TOTAL BILIRUBIN” value [5] was 1.13 mg/dL, the “TOTAL PROTEIN” value [5] was 6.83 G/DL and the BASOPHIL [6] was 0%. For the same molecule, the EOSINOPHIL [6] was 0%, the “ERYTHROCYTE COUNT” value [6] was 3.96 x10E6/uL and the HEMATOCRIT [6] was 24.15%. The HEMOGLOBIN [6] was 9.8 G/DL, the “LEUKOCYTE COUNT” value [6] was 13 x10E3/uL and the LYMPHOCYTE [6] was 85.5%. For the same molecule, the “MEAN CORPUSCULAR HEMOGLOBIN” value [6] was 24.9 pg, the “MEAN CORPUSCULAR HEMOGLOBIN CONCENTRATION” value [6] was 40.55 G/DL and the “MEAN CORPUSCULAR VOLUME” value [6] was 61.35 fL. The MONOCYTE [6] was 2.5%, the NEUTROPHIL [6] was 12% and the “PLATELET COUNT” value [6] was 1586 x10E3/uL. For the same molecule, the “ALANINE AMINOTRANSFERASE” value [6] was 45 u/L, the ALBUMIN [6] was 3.85 G/DL and the “ALKALINE PHOSPHATASE” value [6] was 303 u/L. The “ASPARTATE AMINOTRANSFERASE” value [6] was 67 u/L, the “BLOOD UREA NITROGEN” value [6] was 12 mg/dL and the CHLORIDE [6] was 105 MEQ/L. The CHOLESTEROL [6] was 49.5 mg/dL, the “CREATINE PHOSPHOKINASE” value [6] was 75 u/L and the CREATININE [6] was 0.45 mg/dL. For the same molecule, the GLUCOSE [6] was 223.5 mg/dL, the PHOSPHORUS [6] was 12.75 mg/dL and the POTASSIUM [6] was 7.2 MEQ/L. The SODIUM [6] was 148.5 MEQ/L, the “TOTAL BILIRUBIN” value [6] was 0.9 mg/dL and the “TOTAL PROTEIN” value [6] was 7.05 G/DL.

Source: ChEMBL document CHEMBL3885881, “DrugMatrix”
